Consider one compound from paper PMC7992156 (ACS Omega, 2021).

The assay concerns the target T1, irisin (Homo sapiens, UniProt Q8NAU1).
T1 sequence (Q8NAU1 80-191): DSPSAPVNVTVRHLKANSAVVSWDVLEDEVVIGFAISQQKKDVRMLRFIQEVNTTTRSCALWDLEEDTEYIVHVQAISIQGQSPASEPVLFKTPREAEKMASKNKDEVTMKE
Kind of assay: isothermal titration calorimetry. It counts as binding. For orientation: Isothermal titration calorimetry measures the heat released or taken up as one component is titrated into another.

Structures are written as SMILES. Structures can show the parent of a compound that is named as a salt.

Compound `CCN(C)C(=O)Oc1cccc([C@H](C)N(C)C)c1` [RT, rivastigmine tartrate] showed a Kd of 14.4 µM.

As a reminder, the Kd is the constant that tells how readily two partners part at equilibrium. The low end stands for higher affinity, the high end for lower affinity.
